Assay results from patent US6313090A, “Methods for treating parasitic infection using thiopeptides” (The United States of America as represented by the …, priority 2000, dated 2001).
Where two headings read alike, the source gives them in different places.

Test system: C. parvum GCH1 oocysts
Experiment: Intact C. parvum oocyst assay on MDBKF5D2 cell monolayers, immunofluorescence
Type: cell-based
Conditions: for inhibition at 2000 µg/mL / inhibition at 250 µg/mL / inhibition at 500 µg/mL / inhibition at 1000 µg/mL: Cryptosporidium parvum
Procedure: In vitro doses of drugs. Thiostrepton (Calbiochem) was dissolved in sterile complete Dulbecco's Modified Eagle Medium (DMEM) supplemented with dimethyl sulfoxide (DMSO) at 0.2% and tested at concentrations of 800, 400, 200, and 100, 10, 1 and 0.1 μg/ml.
(§1) Intact C. parvum oocyst asset 3.0×10^4 C. parvum GCH1 oocysts per well were incubated in the above-mentioned concentrations of drug at 37° C. (8% CO2) on confluent MDBKF5D2 cell monolayers in 96 well microtiter plates. The level of infection in each well was determined and analyzed by immunofluorescence assay at 48 hours, using C. parvum sporozoite rabbit anti-serum (0.1%) and fluorescein-conjugated goat anti-rabbit antibody (1.0%). Percent inhibition was calculated by subtracting the mean parasite/drug from the mean parasitelmedium, divided by the mean parasite/medium, all of which was multiplied by 100. The analysis was performed using MCID and an inverted microscope.
In vitro doses of drugs. Thiostrepton (Calbiochem) and Phavic (NTZ) were dissolved in sterile complete Dulbecco's Modified Eagle Medium (DMEM) supplemented with dimethyl sulfoxide (DMSO) at 0.2% and tested at concentrations of 800, 400, 200, and 100 μg/ml. NTZ was tested at concentrations of 100, 10, 1 and 0.1 μg/ml. Paromomycin (Sigma) was dissolved in DMEM and tested at concentrations of 2000, 1000, 500 and 250 μg/ml.
as §1, with “assay .” for “asset”, “plates. For some monolayers, the oocysts were incubated in DMEM on the cell monolayers for four hours, at which time the monolayers were washed and then drug was added to the wells.” for “plates.”, “parasite/medium,” for “parasitelmedium,”
In vitro doses of drugs. Thiostrepton (Calbiochem), Phavic (NTZ) were dissolved in sterile complete Dulbecco's Modified Eagle Medium (DMEM) supplemented with dimethyl sulfoxide (DMSO) at 0.2%. Thiostrepton was tested at a concentration of 800 μg/ml. NTZ was tested at a concentration of 10 μg/ml. Paromomycin was dissolved in DMEM and tested at 2000 μg/ml. Cell monolayers were infected and washed, followed by the addition of drug at time intervals of 0, 2, 4, 8 and 24 hours.
as §1, with “assay.” for “asset”, “analyze” for “analyzed”, “parasite/medium,” for “parasitelmedium,”

`NC[C@@H]1O[C@H](O[C@H]2[C@@H](O)[C@H](O[C@@H]3[C@@H](O)[C@H](N)C[C@H](N)[C@H]3O[C@H]3O[C@H](CO)[C@@H](O)[C@H](O)[C@H]3N)O[C@@H]2CO)[C@H](N)[C@@H](O)[C@@H]1O` [PRM, paromomycin] was tested, and the inhibition at 2000 µg/mL (0 h, Table 5, 2000 μg/ml, drug added at 0 hrs, read-out: Inhibition Percent) was 77.4%, the inhibition at 2000 µg/mL (0 h, Table 5, 2000 μg/ml, drug added at 0 hrs, read-out: Inhibition Score) was 71 to 90% and the inhibition at 2000 µg/mL (2 h, Table 5, 2000 μg/ml, drug added at 2 hrs, read-out: Inhibition Percent) was 89.4%. It also gave an inhibition at 2000 µg/mL (2 h, Table 5, 2000 μg/ml, drug added at 2 hrs, read-out: Inhibition Score) of 71 to 90%, an inhibition at 250 µg/mL (4 h, Table 4 Washed at 4 hours, 250 μg/ml, read-out: Inhibition Percent) of 59.3% and an inhibition at 250 µg/mL (4 h, Table 4 Washed at 4 hours, 250 μg/ml, read-out: Inhibition Score) of 56 to 70%. The inhibition at 500 µg/mL (4 h, Table 4 Washed at 4 hours, 500 μg/ml, read-out: Inhibition Percent) was 69.2%, the inhibition at 500 µg/mL (4 h, Table 4 Washed at 4 hours, 500 μg/ml, read-out: Inhibition Score) was 56 to 70% and the inhibition at 1000 µg/mL (4 h, Table 4 Washed at 4 hours, 1000 μg/ml, read-out: Inhibition Percent) was 79.2%. It also gave an inhibition at 1000 µg/mL (4 h, Table 4 Washed at 4 hours, 1000 μg/ml, read-out: Inhibition Score) of 71 to 90%, an inhibition at 2000 µg/mL (4 h, Table 4 Washed at 4 hours, 2000 μg/ml, read-out: Inhibition Percent) of 82.5% and an inhibition at 2000 µg/mL (4 h, Table 4 Washed at 4 hours, 2000 μg/ml, read-out: Inhibition Score) of 71 to 90%. For the same molecule, the inhibition at 2000 µg/mL (4 h, Table 5, 2000 μg/ml, drug added at 4 hrs, read-out: Inhibition Percent) was 79%, the inhibition at 2000 µg/mL (4 h, Table 5, 2000 μg/ml, drug added at 4 hrs, read-out: Inhibition Score) was 71 to 90% and the inhibition at 2000 µg/mL (8 h, Table 5, 2000 μg/ml, drug added at 8 hrs, read-out: Inhibition Percent) was 72.2%. The inhibition at 2000 µg/mL (8 h, Table 5, 2000 μg/ml, drug added at 8 hrs, read-out: Inhibition Score) was 71 to 90%, the inhibition at 2000 µg/mL (24 h, Table 5, 2000 μg/ml, drug added at 24 hrs, read-out: Inhibition Percent) was 27% and the inhibition at 2000 µg/mL (24 h, Table 5, 2000 μg/ml, drug added at 24 hrs, read-out: Inhibition Score) was 0 to 30%. It also gave an inhibition at 2000 µg/mL (Table 1, 2000 μg/ml, read-out: Inhibition Percent) of 73.2%, an inhibition at 2000 µg/mL (Table 1, 2000 μg/ml, read-out: Inhibition Score) of 71 to 90% and an inhibition at 2000 µg/mL (Table 2, 2 mg/ml, read-out: Inhibition Percent) of 69.7%. The inhibition at 2000 µg/mL (Table 2, 2 mg/ml, read-out: Inhibition Score) was 56 to 70%, the inhibition at 250 µg/mL (Table 3 Unwashed, 250 μg/ml, read-out: Inhibition Percent) was 68% and the inhibition at 250 µg/mL (Table 3 Unwashed, 250 μg/ml, read-out: Inhibition Score) was 56 to 70%. It also gave an inhibition at 500 µg/mL (Table 3 Unwashed, 500 μg/ml, read-out: Inhibition Percent) of 71.9%, an inhibition at 500 µg/mL (Table 3 Unwashed, 500 μg/ml, read-out: Inhibition Score) of 71 to 90% and an inhibition at 1000 µg/mL (Table 3 Unwashed, 1000 μg/ml, read-out: Inhibition Percent) of 79.3%. The inhibition at 1000 µg/mL (Table 3 Unwashed, 1000 μg/ml, read-out: Inhibition Score) was 71 to 90%, the inhibition at 2000 µg/mL (Table 3 Unwashed, 2000 μg/ml, read-out: Inhibition Percent) was 81.9% and the inhibition at 2000 µg/mL (Table 3 Unwashed, 2000 μg/ml, read-out: Inhibition Score) was 71 to 90%. The inhibition at 2000 µg/mL (Table 6, 2 mg/ml, read-out: Inhibition Percent) was 76.3%, the inhibition at 2000 µg/mL (Table 6, 2 mg/ml, read-out: Inhibition Score) was 71 to 90% and the “Parasite Count” value (Table 1, 2000 μg/ml) was 278.06. The “Inhibition Percent” value (Table 2, 2 mg/ml) was 76.61%, the “Inhibition Score” value (Table 2, 2 mg/ml) was 3 (3: 71-90%) and the “Parasite Count” value (Table 2, 2 mg/ml) was 423.81. The “Parasite Count” value (Table 2, 2 mg/ml, listed as PRM/DMSO) was 369.81, the “Parasite Count” value (Table 3 Unwashed, 250 μg/ml) was 453.94 and the “Parasite Count” value (Table 3 Unwashed, 500 μg/ml) was 398.31. The “Parasite Count” value (Table 3 Unwashed, 1000 μg/ml) was 293.56, the “Parasite Count” value (Table 3 Unwashed, 2000 μg/ml) was 256.38 and the “Parasite Count” value (Table 4 Washed at 4 hours, 250 μg/ml) was 492.13. For the same molecule, the “Parasite Count” value (Table 4 Washed at 4 hours, 500 μg/ml) was 372.44, the “Parasite Count” value (Table 4 Washed at 4 hours, 1000 μg/ml) was 251.88 and the “Parasite Count” value (Table 4 Washed at 4 hours, 2000 μg/ml) was 211.38. For the same molecule, the “Parasite Count” value (Table 5, 2000 μg/ml, drug added at 0 hrs) was 287.63, the “Parasite Count” value (Table 5, 2000 μg/ml, drug added at 2 hrs) was 134.94 and the “Parasite Count” value (Table 5, 2000 μg/ml, drug added at 4 hrs) was 267.25. The “Parasite Count” value (Table 5, 2000 μg/ml, drug added at 8 hrs) was 354.06, the “Parasite Count” value (Table 5, 2000 μg/ml, drug added at 24 hrs) was 929.19 and the “Parasite Count” value (Table 6, 2 mg/ml) was 325.75. The “activity when drug is added 24 hours after infection” value (intracellular stages only) was “activity drops”.
